Results reported in ChEMBL document CHEMBL3792292, “Development of a potent and selective FLT3 kinase inhibitor by systematic expansion of a non-selective fragment-screening hit” (Bioorg Med Chem Lett, 2016).
Active and inactive are the calls of the source. The rule behind the calls is not given here.

What was measured:
[1] = target: Glycogen synthase kinase-3 beta (Homo sapiens) (UniProt P49841); experiment: Inhibition of full length human N-terminal GST-tagged GSK3beta (1 to 420 residues) expressed in baculovirus expression system using fluorescence labelled CREBtide-p as substrate at 50 times IC50 by electrophoretic mobility shift assay relative to control
Glycogen synthase kinase-3 beta (Homo sapiens), sequence (P49841 whole entry, looked up, the tested form may be a part): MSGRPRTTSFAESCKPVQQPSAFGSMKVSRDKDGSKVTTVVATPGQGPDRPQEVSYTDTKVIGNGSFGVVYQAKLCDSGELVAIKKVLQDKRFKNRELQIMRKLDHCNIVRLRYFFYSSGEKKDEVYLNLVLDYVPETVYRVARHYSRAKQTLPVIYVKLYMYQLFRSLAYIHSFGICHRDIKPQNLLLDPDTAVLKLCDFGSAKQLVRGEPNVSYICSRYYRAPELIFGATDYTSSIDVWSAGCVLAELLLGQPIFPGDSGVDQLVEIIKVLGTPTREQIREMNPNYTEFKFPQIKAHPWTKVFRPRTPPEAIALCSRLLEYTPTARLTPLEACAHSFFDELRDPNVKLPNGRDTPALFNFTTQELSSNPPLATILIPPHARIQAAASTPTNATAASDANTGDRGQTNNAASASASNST

[2] = target: T1, Serine/threonine-protein kinase Chk1 (Homo sapiens) (UniProt O14757); experiment: Inhibition of full length human N-terminal GST-tagged CHK1 (1 to 476 residues) expressed in baculovirus expression system using fluorescence labelled CHKtide as substrate at 50 times IC50 by electrophoretic mobility shift assay relative to control
T1 sequence (whole entry): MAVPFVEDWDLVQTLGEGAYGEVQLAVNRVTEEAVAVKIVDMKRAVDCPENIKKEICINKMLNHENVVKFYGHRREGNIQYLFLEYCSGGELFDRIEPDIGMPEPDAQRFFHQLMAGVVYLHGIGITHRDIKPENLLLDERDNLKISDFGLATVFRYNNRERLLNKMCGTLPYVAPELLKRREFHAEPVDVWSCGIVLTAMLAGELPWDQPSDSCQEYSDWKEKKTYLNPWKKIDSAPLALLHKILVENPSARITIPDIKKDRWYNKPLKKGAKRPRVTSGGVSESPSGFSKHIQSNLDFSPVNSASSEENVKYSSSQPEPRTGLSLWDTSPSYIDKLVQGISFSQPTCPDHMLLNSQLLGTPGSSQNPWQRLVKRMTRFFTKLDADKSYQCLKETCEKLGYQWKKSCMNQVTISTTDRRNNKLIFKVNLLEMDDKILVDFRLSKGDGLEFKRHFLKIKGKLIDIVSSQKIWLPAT

[3] = target: High affinity nerve growth factor receptor (Homo sapiens, UniProt P04629); experiment: Inhibition of human N-terminal GST-tagged TRKA cytoplasmic domain (436 to 790 residues) expressed in baculovirus expression system using fluorescence labelled CSKtide as substrate by electrophoretic mobility shift assay
High affinity nerve growth factor receptor, sequence (P04629 whole entry, the tested form may be a part): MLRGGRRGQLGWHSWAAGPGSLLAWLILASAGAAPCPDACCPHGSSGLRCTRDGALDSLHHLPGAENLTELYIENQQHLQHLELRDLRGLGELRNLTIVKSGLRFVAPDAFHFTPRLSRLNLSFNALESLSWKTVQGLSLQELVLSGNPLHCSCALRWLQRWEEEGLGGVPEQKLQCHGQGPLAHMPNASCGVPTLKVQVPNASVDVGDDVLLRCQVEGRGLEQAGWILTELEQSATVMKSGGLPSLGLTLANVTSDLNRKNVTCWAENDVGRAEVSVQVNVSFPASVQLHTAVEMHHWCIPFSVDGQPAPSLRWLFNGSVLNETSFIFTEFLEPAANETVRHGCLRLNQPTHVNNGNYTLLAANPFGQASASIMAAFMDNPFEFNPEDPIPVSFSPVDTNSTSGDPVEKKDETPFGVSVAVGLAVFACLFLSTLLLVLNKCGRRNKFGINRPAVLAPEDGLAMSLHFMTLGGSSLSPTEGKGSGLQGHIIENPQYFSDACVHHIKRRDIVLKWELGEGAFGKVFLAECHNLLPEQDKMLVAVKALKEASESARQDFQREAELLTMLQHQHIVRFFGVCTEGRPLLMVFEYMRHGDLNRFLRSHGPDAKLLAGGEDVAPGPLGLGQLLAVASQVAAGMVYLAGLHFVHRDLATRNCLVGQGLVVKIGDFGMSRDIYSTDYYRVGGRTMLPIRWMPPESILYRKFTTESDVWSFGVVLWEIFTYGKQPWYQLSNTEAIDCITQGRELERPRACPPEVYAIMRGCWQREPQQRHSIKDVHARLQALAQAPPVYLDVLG

[4] = target: CYP2C9 (Homo sapiens, UniProt P11712); experiment: Inhibition of human CYP2C9 at 10 uM relative to control; type: ADME
CYP2C9, sequence (P11712 whole entry, the tested form may be a part): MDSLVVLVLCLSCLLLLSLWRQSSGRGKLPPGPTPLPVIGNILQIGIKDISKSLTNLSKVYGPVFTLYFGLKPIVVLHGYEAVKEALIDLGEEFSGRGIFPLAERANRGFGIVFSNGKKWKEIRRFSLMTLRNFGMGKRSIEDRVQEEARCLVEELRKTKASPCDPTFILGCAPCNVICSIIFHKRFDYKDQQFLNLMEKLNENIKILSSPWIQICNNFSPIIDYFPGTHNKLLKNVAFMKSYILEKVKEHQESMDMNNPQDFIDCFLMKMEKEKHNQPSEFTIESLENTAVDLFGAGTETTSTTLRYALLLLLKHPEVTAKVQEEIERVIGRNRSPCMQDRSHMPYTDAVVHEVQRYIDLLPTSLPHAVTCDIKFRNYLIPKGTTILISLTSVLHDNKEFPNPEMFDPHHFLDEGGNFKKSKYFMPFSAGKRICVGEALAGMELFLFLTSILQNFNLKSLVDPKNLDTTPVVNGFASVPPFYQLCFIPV

[5] = target: Ribosomal protein S6 kinase beta-1 (Homo sapiens) (UniProt P23443); experiment: Inhibition of human N-terminal GST-tagged p70S6K catalytic domain (1 to 421 residues) expressed in baculovirus expression system coexpressing His-tagged PDK1 (1 to 556 residues) using fluorescence labelled S6K2 peptide substrate at 50 times IC50 by electrophoretic mobility shift assay relative to control
Ribosomal protein S6 kinase beta-1 (Homo sapiens), sequence (P23443 whole entry, looked up, the tested form may be a part): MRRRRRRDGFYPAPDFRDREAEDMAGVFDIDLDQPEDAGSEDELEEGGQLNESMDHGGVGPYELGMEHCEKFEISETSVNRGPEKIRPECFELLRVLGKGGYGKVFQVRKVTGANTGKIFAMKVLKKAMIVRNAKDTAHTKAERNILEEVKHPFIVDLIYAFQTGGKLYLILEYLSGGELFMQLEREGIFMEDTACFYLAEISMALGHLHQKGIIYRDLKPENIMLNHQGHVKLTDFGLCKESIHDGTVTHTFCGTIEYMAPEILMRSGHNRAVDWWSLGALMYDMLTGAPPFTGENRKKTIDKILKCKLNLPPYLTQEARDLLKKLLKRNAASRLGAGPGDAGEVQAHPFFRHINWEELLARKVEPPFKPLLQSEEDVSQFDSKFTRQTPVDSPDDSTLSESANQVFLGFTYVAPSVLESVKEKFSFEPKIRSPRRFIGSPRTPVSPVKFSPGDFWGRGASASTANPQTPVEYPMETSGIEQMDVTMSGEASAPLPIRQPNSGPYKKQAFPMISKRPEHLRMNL

[6] = target: CYP2C19 (Homo sapiens, UniProt P33261); experiment: Inhibition of human CYP2C19 at 10 uM relative to control; type: ADME
CYP2C19, sequence (P33261 whole entry): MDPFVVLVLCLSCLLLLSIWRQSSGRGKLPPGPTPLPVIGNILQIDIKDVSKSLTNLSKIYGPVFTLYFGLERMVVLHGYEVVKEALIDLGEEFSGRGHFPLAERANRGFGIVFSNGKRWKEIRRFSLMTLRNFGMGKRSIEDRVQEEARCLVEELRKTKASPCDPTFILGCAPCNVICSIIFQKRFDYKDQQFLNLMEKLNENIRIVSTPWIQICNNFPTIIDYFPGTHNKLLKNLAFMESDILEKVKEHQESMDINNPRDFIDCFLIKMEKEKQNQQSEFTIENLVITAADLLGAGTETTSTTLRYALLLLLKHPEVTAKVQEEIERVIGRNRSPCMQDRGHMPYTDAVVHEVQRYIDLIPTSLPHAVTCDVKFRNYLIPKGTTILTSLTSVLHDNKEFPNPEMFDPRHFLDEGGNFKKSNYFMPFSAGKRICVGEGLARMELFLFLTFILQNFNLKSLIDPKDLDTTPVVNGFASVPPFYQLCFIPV

[7] = target: CYP3A4 (Homo sapiens, UniProt P08684); experiment: Inhibition of human recombinant CYP3A4 at 10 uM by fluorimetry relative to control; type: ADME
CYP3A4, sequence (P08684 whole entry): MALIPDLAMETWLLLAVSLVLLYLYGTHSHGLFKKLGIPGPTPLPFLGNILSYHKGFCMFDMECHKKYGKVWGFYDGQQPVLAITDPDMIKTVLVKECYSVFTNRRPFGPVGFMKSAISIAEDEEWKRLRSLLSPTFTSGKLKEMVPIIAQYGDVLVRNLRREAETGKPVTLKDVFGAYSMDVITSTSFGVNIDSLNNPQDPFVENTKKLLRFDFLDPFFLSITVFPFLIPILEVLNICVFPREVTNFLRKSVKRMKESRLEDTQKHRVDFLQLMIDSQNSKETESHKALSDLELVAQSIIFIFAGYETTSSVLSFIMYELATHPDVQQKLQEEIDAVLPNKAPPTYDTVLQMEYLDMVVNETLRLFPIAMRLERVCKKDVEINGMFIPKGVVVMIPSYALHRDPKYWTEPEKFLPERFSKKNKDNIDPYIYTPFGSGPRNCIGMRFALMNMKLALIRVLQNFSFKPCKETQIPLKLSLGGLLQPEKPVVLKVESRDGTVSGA

[8] = Permeability from apical to basolateral side in human Caco2 cells at 10 uM after 60 mins by HPLC-MS/MS analysis; type: ADME, cell-based; conditions: Caco-2, read-out: permeability
[9] = target: Casein kinase I isoform epsilon (Homo sapiens) (UniProt P49674); experiment: Inhibition of human N-terminal GST-tagged CK1epsilon catalytic domain (1 to 348 residues) expressed in baculovirus expression system using fluorescence labelled CKtide as substrate at 50 times IC50 by electrophoretic mobility shift assay relative to control
Casein kinase I isoform epsilon (Homo sapiens), sequence (P49674 whole entry, looked up, the tested form may be a part, canonical isoform): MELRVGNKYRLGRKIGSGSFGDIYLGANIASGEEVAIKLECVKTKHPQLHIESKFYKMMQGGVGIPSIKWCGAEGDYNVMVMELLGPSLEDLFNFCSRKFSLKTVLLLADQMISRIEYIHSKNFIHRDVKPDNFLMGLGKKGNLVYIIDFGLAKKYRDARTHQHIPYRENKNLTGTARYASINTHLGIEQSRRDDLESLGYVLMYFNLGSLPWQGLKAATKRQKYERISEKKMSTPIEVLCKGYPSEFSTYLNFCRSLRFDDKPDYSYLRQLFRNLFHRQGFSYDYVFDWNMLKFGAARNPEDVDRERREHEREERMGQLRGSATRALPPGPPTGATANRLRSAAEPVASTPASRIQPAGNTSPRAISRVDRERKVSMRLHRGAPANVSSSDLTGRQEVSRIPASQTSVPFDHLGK

[10] = target: Ephrin type-A receptor 2 (Homo sapiens) (UniProt P29317); experiment: Inhibition of human N-terminal GST-tagged EPHA2 cytoplasmic domain (572 to 976 residues) expressed in baculovirus expression system using fluorescence labelled Blk/Lyntide as substrate at 50 times IC50 by electrophoretic mobility shift assay relative to control
Ephrin type-A receptor 2 (Homo sapiens), sequence (P29317 whole entry, the tested form may be a part): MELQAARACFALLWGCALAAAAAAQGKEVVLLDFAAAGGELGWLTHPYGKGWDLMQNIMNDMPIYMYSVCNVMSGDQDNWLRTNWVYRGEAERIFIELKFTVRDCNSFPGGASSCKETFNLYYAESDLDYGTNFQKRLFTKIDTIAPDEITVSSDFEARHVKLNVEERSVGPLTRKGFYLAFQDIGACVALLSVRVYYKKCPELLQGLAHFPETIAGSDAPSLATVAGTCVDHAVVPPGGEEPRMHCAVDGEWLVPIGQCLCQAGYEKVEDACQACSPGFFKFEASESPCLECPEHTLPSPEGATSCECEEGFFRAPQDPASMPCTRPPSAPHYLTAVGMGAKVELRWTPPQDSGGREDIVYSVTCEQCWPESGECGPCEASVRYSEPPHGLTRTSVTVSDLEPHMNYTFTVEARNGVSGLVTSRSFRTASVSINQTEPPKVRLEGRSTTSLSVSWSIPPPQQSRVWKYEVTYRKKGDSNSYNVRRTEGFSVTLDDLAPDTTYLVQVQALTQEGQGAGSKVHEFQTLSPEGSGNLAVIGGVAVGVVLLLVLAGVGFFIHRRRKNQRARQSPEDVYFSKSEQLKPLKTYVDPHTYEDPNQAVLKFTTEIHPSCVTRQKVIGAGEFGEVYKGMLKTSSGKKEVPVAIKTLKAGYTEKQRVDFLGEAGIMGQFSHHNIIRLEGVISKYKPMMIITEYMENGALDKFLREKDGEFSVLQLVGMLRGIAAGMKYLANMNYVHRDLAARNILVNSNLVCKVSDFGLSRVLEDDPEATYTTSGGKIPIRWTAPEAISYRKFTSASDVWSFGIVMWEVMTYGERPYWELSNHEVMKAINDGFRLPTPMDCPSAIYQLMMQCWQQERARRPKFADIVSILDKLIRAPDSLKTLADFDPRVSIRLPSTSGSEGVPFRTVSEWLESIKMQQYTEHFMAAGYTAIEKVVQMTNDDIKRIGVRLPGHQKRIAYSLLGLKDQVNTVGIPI

[11] = target: Mitogen-activated protein kinase kinase kinase kinase 4 (Homo sapiens, UniProt O95819); experiment: Inhibition of human N-terminal GST-tagged HGK catalytic domain (1 to 328 residues) expressed in baculovirus expression system using fluorescence labelled moesin-derived peptide substrate by electrophoretic mobility shift assay
[12] = test system: MV4-11; experiment: Growth inhibition of human MV4-11 cells harboring FLT3-ITD after 48 hrs by CCK8 assay; type: functional, cell-based; conditions: MV4-11, 48 h
[13] = Metabolic stability in human liver microsomes assessed as parent compound remaining at 1 uM after 1 hr; type: ADME; conditions: read-out: Stability
[14] = test system: MV4-11; experiment: Induction of apoptosis in human MV4-11 cells at 0.17 to 17 uM after 48 hrs by annexin V/propidium iodide staining based flow cytometry; type: functional, cell-based
[15] = target: T2, Tyrosine-protein kinase ITK/TSK (Homo sapiens) (UniProt Q08881); experiment: Inhibition of full length human N-terminal GST-tagged ITK (2 to 620 residues) expressed in baculovirus expression system using fluorescence labelled srctide as substrate at 50 times IC50 by electrophoretic mobility shift assay relative to control
T2 sequence (whole entry): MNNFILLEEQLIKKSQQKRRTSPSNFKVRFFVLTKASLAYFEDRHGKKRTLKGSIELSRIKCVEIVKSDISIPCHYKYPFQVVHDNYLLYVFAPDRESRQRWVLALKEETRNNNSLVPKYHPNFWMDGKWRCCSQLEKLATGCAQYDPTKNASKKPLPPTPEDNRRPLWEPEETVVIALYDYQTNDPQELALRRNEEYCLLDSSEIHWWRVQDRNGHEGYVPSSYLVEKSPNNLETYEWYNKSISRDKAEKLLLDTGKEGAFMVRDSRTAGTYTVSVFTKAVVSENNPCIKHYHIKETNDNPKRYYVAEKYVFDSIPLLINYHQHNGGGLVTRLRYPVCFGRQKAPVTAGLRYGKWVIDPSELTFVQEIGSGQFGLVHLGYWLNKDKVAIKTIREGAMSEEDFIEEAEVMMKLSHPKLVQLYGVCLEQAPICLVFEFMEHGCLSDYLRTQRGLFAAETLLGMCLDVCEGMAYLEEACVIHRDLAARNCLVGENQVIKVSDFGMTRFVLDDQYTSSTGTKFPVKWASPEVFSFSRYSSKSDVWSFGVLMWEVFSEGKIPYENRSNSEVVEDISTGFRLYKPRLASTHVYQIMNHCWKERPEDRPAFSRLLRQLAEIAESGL

[16] = target: T3, Lymphokine-activated killer T-cell-originated protein kinase (Homo sapiens) (UniProt Q96KB5); experiment: Inhibition of full length human N-terminal GST-tagged PBK (1 to 322 residues) expressed in baculovirus expression system using fluorescence labelled histone H3 peptide substrate at 50 times IC50 by electrophoretic mobility shift assay relative to control
T3 sequence (whole entry): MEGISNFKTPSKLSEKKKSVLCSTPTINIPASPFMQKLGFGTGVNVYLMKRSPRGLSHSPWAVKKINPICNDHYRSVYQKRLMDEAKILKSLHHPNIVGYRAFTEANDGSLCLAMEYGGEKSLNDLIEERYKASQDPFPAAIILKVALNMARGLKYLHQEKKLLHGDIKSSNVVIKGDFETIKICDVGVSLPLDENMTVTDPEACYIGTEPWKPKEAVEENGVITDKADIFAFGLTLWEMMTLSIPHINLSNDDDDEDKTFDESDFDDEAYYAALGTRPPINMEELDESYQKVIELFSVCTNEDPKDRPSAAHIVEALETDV

[17] = Growth inhibition of human WI38 cells after 48 hrs by CCK8 assay; type: cell-based; conditions: WI-38, 48 h

| Structure (SMILES) | inhibition [1] | inhibition [2] | IC50 [3] | inhibition at 10 µM [4] | inhibition [5] | inhibition at 10 µM [6] | inhibition at 10 µM [7] | Papp A→B at 1 h, 10 µM [8] | inhibition [9] | inhibition [10] | IC50 [11] | IC50 [12] | remaining at 1 h, 1 µM [13] | Activity [14] | inhibition [15] | inhibition [16] | IC50 [17] |
| --- | --- | --- | --- | --- | --- | --- | --- | --- | --- | --- | --- | --- | --- | --- | --- | --- | --- |
| O=C(Nc1ccc(CN2CCN(c3ccccc3)CC2)cc1)c1n[nH]c2ccccc12 | -3.7% | 1% | 137 nM | 36% | 17.8% | 57% | 48% | 4 ×10⁻⁶ cm/s | 19.3% | 0.9% | 410 nM | 164 nM | 50% | Active | 37.4% | -3.1% | > 10000 nM |
| O=C(Nc1ccccc1)c1n[nH]c2ccccc12 | 51% | 10.9% |  |  | 47.3% |  |  |  | 51.3% | 0.6% |  | 7700 nM |  |  | 79.7% | 4.5% | > 10000 nM |
| O=C(Nc1ccc(C(=O)N2CCN(c3ccccc3)CC2)cc1)c1n[nH]c2ccccc12 | 4.9% | 8% |  |  | 43% |  |  |  | 21.3% | -1.6% |  |  |  |  | 50.8% | -1.9% |  |
